Literature values in US9072754B2, “Process for obtaining non-allergic propolis” (MR. GIUSEPPE MARIA RICCHIUTO, priority 2010, dated 2015).

Conditions: among the compounds of the LB-1 fraction of propolis; literature

For `CC(C)=CCOC(=O)/C=C/c1ccc(O)c(O)c1` [3-methyl-2-butenyl-caffeate, 3-methyl-2-butenyl caffeate], the allergenic effect is given as “the most allergenic effect”.
